Assay results from the supplement of paper PMC11281043.

Assays:
Details in all cases: exposure: 6-8 hpf to 5 dpf, scored at 6 dpf
[1] = system: Danio rerio embryo/larva; assay: max % larvae with tail defects across tested concentrations; higher = more toxic; extreme values may be limits of the assay
[2] = system: Danio rerio embryo/larva; assay: max % larvae generally abnormal across tested concentrations; higher = more toxic; extreme values may be limits of the assay
[3] = system: Danio rerio embryo/larva; assay: max % larvae with craniofacial defects across tested concentrations; higher = more toxic; extreme values may be limits of the assay
[4] = system: Danio rerio embryo/larva; assay: max % larvae with abnormal position across tested concentrations; higher = more toxic; extreme values may be limits of the assay
[5] = system: Danio rerio embryo/larva; assay: max % larvae with edema across tested concentrations; higher = more toxic; extreme values may be limits of the assay
[6] = system: Danio rerio embryo/larva; assay: max % larvae with pigmentation defects across tested concentrations; higher = more toxic
[7] = system: Danio rerio embryo/larva; assay: max % larvae with spinal defects across tested concentrations; higher = more toxic; extreme values may be limits of the assay
[8] = system: Danio rerio embryo/larva; assay: max % larvae with uninflated swim bladder across tested concentrations; higher = more toxic; extreme values may be limits of the assay
[9] = system: Danio rerio embryo/larva; assay: max % larvae with blood pooling across tested concentrations; higher = more toxic; extreme values may be limits of the assay

| SMILES | max % larvae [1] [%] | max % larvae generally abnormal across tested concentrations [2] [%] | max % larvae [3] [%] | max % larvae [4] [%] | max % larvae [5] [%] | max % larvae [6] [%] | max % larvae [7] [%] | max % larvae [8] [%] | max % larvae [9] [%] |
| --- | --- | --- | --- | --- | --- | --- | --- | --- | --- |
| OCC(F)(F)C(F)(F)C(F)(F)C(F)(F)C(F)(F)C(F)F [1H,1H,7H-Dodecafluoro-1-heptanol] (max tested concentration (log10 uM): 2) | 0 | 8.33 | 0 | 0 | 8.33 | 0 | 0 | 0 | 0 |
| FC(F)(F)C(F)(F)C(F)(F)CI [Heptafluorobutyl iodide] (max tested concentration (log10 uM): 2) | 0 | 0 | 0 | 0 | 0 | 0 | 0 | 0 | 0 |
| FC(F)(F)C(F)(F)C(F)(F)C(F)(F)C(F)(F)C(F)(F)CCS [2-(Perfluorohexyl)ethanethiol] (max tested concentration (log10 uM): 1.60206) | 0 | 8.33 | 0 | 0 | 8.33 | 0 | 0 | 16.7 | 0 |
| O=C(O)C(F)(F)C(F)(F)C(F)F [4H-Perfluorobutanoic acid] (max tested concentration (log10 uM): 2) | 0 | 0 | 0 | 0 | 0 | 0 | 0 | 0 | 0 |
| O=C(O)C(F)(F)C(F)(F)C(F)(F)C(F)(F)C(F)(F)C(F)(F)C(F)F [8H-Perfluorooctanoic acid] (max tested concentration (log10 uM): 2) | 4.17 | 8.33 | 0 | 0 | 0 | 0 | 0 | 16.7 | 0 |
| O=C(O)C(F)(F)OC(F)(F)C(F)(F)OC(F)(F)C(F)(F)OC(F)(F)F [Perfluoro-3,6,9-trioxadecanoic acid] (max tested concentration (log10 uM): 2) | 30 | 70 | 40 | 25 | 45 | 0 | 20 | 100 | 40 |
| FC(F)(F)C(F)(F)C(F)(F)C(F)(F)C(F)(F)C(F)(F)C(F)(F)C(F)(F)CCS [2-(Perfluorooctyl)ethanthiol] (max tested concentration (log10 uM): 1.60206) | 0 | 8.33 | 0 | 0 | 8.33 | 0 | 0 | 8.33 | 0 |
| FC(F)(F)COC(OCC(F)(F)F)OCC(F)(F)F [tris(Trifluoroethoxy)methane] (max tested concentration (log10 uM): 2) | 0 | 0 | 0 | 0 | 0 | 0 | 0 | 0 | 0 |
| O=C(O)C(F)(F)C(F)(F)C(F)(F)C(F)(F)C(F)(F)C(F)(F)C(F)(F)C(F)F [9H-Perfluorononanoic acid] (max tested concentration (log10 uM): 2) | 0 | 10.4 | 0 | 2.08 | 10.4 | 0 | 0 | 16.7 | 0 |
| NC(=O)C(F)(F)C(F)(F)C(F)(F)C(F)(F)F [Nonafluoropentanamide] (max tested concentration (log10 uM): 2) | 0 | 0 | 0 | 0 | 0 | 0 | 0 | 0 | 0 |
| O=C(CC(=O)C(F)(F)F)C(F)(F)F [1,1,1,5,5,5-Hexafluoro-2,4-pentanedione] (max tested concentration (log10 uM): 2) | 0 | 0 | 0 | 0 | 0 | 0 | 0 | 0 | 0 |
| O=C(O)C(F)(F)C(F)(F)C(F)(F)C(=O)O [Perfluoropentanedioic acid] (max tested concentration (log10 uM): 2) | 0 | 0 | 0 | 0 | 0 | 0 | 0 | 0 | 0 |
| C=C(C)C(=O)OCCC(F)(F)C(F)(F)C(F)(F)C(F)(F)C(F)(F)C(F)(F)F [2-(Perfluorohexyl)ethyl methacrylate] (max tested concentration (log10 uM): 2) | 0 | 0 | 0 | 0 | 0 | 0 | 0 | 0 | 0 |
| C=C(C)C(=O)OCCC(F)(F)C(F)(F)C(F)(F)C(F)(F)C(F)(F)C(F)(F)C(F)(F)C(F)(F)F [2-(Perfluorooctyl)ethyl methacrylate] (max tested concentration (log10 uM): 2) | 0 | 0 | 0 | 0 | 0 | 0 | 0 | 0 | 0 |
| O=C(O)C(F)(F)C(F)(F)F [Perfluoropropanoic acid] (max tested concentration (log10 uM): 2) | 0 | 0 | 0 | 0 | 0 | 0 | 0 | 0 | 0 |
| O=S(=O)(O)C(F)(F)C(F)(F)C(F)(F)C(F)(F)F [Perfluorobutanesulfonic acid] (max tested concentration (log10 uM): 2) | 0 | 0 | 0 | 0 | 0 | 0 | 0 | 0 | 0 |
| COC(=O)C(F)(F)C(F)(F)C(F)(F)C(F)(F)C(F)(F)F [Methyl perfluorohexanoate] (max tested concentration (log10 uM): 2) | 0 | 0 | 0 | 0 | 0 | 0 | 0 | 0 | 0 |
| O=S(=O)(O)CCC(F)(F)C(F)(F)C(F)(F)C(F)(F)F [4:2 Fluorotelomer sulfonic acid] (max tested concentration (log10 uM): 2) | 0 | 0 | 0 | 0 | 0 | 0 | 0 | 0 | 0 |
| FC(F)(F)C(F)(F)C(F)(F)C(F)(F)C(F)(F)C(F)(F)I [Perfluoro-1-iodohexane] (max tested concentration (log10 uM): 2) | 0 | 0 | 0 | 0 | 0 | 0 | 0 | 0 | 0 |
| OCCCC(F)(F)C(F)(F)C(F)(F)C(F)(F)C(F)(F)C(F)(F)C(F)(F)C(F)(F)F [3-(Perfluorooctyl)propanol] (max tested concentration (log10 uM): 2) | 0 | 0 | 0 | 0 | 0 | 0 | 0 | 0 | 0 |
| C[N+](C)(C)CCCNS(=O)(=O)C(F)(F)C(F)(F)C(F)(F)C(F)(F)C(F)(F)C(F)(F)C(F)(F)C(F)(F)F (max tested concentration (log10 uM): 1.47712) | 0 | 50 | 50 | 12.5 | 50 | 0 | 0 | 25 | 0 |
| OCC(F)(F)C(F)(F)C(F)(F)F [3:1 Fluorotelomer alcohol] (max tested concentration (log10 uM): 2) | 0 | 8.33 | 0 | 0 | 8.33 | 0 | 0 | 0 | 8.33 |
| O=C(O)C=CC(F)(C(F)(F)F)C(F)(F)F [3-(Perfluoroisopropyl)-2-propenoic acid] (max tested concentration (log10 uM): 2) | 8.33 | 16.7 | 16.7 | 8.33 | 16.7 | 0 | 8.33 | 16.7 | 16.7 |
| O=C(O)C(F)(F)C(F)(F)C(F)(F)C(F)(F)C(F)(F)F [Perfluorohexanoic acid] (max tested concentration (log10 uM): 2) | 0 | 0 | 0 | 0 | 0 | 0 | 0 | 0 | 0 |
| NC(=O)C(F)(F)C(F)(F)C(F)(F)C(F)(F)C(F)(F)C(F)(F)C(F)(F)F [Perfluorooctanamide] (max tested concentration (log10 uM): 2) | 0 | 0 | 0 | 0 | 0 | 0 | 0 | 0 | 0 |
